Data as given in patent publication US8017596B2, “Phosphonates useful as modulators of T-γ-9-δ-2 activity” (Innate Pharma, S.A., priority 2001, dated 2011).

Legend:
Vγ9/Vδ2 lymphocytes = assay: Vγ9/Vδ2 lymphocyte expansion (flow cytometry immunofluorescence, anti-CD3 / anti-Vγ9); format: cell-based, human; details: PBMC after 5 days in culture, 100 μM; FIG. 2E-2L
Protocol: FIGS. 2A-2L. In order to verify selectivity with respect to Vγ9/Vδ2 lymphocytes of molecule activating potential, PBMCs, were cultured and analysed after 5 days of culture in the presence of various molecules by flow cytometry immunofluorescence. For this, the cells are retrieved, washed in PBS and then incubated in the presence of human anti-CD3 monoclonal antibodies conjugated with fluoroscein (FITC, FL1) and human anti-Vγ9 coupled with biotin and then detected with Streptavidine-phycoerythrin conjugate (ST-PE, FL2). The markings are produced by incubating for 30 minutes with 0.5 μg of each antibody per million cells. The analysis is performed after washing on a FACScalibur-SORT cell analyser-sorter cytofluorimeter (Becton Dickinson, Mountain View, CA). FIG. 2A gives the profile (size FSC and granularity SSC) of the cells studied. […] FIGS. 2D to 2L show a PBMC after 5 days in culture in the presence of the molecule tested. FIG. 2D: cells stimulated with 1μg/ml phytohaemagglutinin A (PHA). FIG. 2E: cells stimulated with 100μM isoprenylpyrophosphate (IPP). FIG. 2F: cells stimulated with 100μM 1-pyrophosphono-4-methylpenta-1,3-diene. FIG. 2G: cells stimulated with 100μM (E) 1-pyrophosphono-penta-1,3-diene. FIG. 2H: cells stimulated with 100μM (E) 1-pyrophosphono-buta-1,3-diene, FIG. 2I: cells stimulated with 100μM 5-pyrophosphono-2-methylpent-2-ene. FIG. 2J: cells stimulated with 100μM α,γ-di-[4-methylpent-4-enyl]-triphosphonate. FIG. 2K: cells stimulated with 100μM 5-pyrophosphono-2methylpentene. FIG. 2L: cells stimulated with 100μM 5-triphosphono-2-methylpentene.
In order to verify selectivity with respect to Vγ9/Vδ2 lymphocytes of the molecule activating potential, PBMCs, cultured under the conditions described above were analysed after 5 days of culture in the presence of various molecules by flow cytometry immunofluorescence. For this, the cells are retrieved, washed in PBS and then incubated in the presence of human anti-CD3 monoclonal antibodies conjugated with fluoroscein (FITC, FL1) and human anti-Vγ9 coupled with biotin and then detected with Streptavidine-phycoerythrin conjugate (ST-PE, FL2). The markings are produced by incubating for 30 minutes with 0.5 μg of each antibody per million cells. The analysis is performed after washing on a FACScalibur-SORT cell analyser-sorter cytofluorimeter (Becton Dickinson, Mountain View, Calif.). The results are processed using Cellquest software.
FIG. 2A gives the profile (size FSC and granularity SSC) of the cells studied. […] FIGS. 2D to 2L show a PBMC after 5 days in culture in the presence of the molecule tested.

[1] = test system: Human peripheral blood lymphocytes (PBMC); assay: Human peripheral blood T lymphocyte proliferation activation (3H-thymidine incorporation, stimulation index); details: concentrations 0.001 μM to 500 μM, 4 days then 24 hours 3H-TdR, FIG. 1
Protocol: Human peripheral blood lymphocytes (PBMC) are isolated from donors' by centrifugation on Ficoll-Hypaque. They are then placed in culture in 96-well plates at a rate of 2.10^6 cells/ml in 200 μl of RPMI 1640 medium (Gibco) containing 10% foetal calf serum or human AB serum, 20 mM of Glutamine, 10 mM Hepes, 1 mM of sodium pyruvate, 10 μg/ml of penicillin-streptomycin. The molecules under test are then added at final concentrations ranging from 0.001 μM to 500 μM. Each condition is produced in triplicate. The molecules are diluted in isotonic phosphate buffer (PBS). The cells are then incubated at 37° C.-5% CO2 for 4 days. Cell proliferation is then determined by measuring the incorporation of thymidine ^3H (^3H-TdR). For this, 0.5 μCi of ^3H-TdR is added per culture. After 24 hours, the cells are retrieved on Cell Harvester (Packard Instruments) and the radioactivity incorporated in high molecular weight material is counted using a Rack-Beta counter (Packard).
The stimulation indices are evaluated as follows:
In all the experiments, isoprenyl pyrophosphonate (IPP) is selected as the reference.

[2] = Stability in human AB serum followed by phosphorus 31 NMR; details: three days of incubation; for degradation of the molecule after incubation in serum: human AB serum, 31P NMR
Protocol: To 0.5 ml of each solution, 500 μl of human AB serum was added and the mixture were left to incubate. After three days of incubation, the degradation of the molecule is measured by phosphorus 31 NMR.

human γ9δ2 T lymphocytes = details: in vitro; literature (Tanaka et al. 1994; Kunzmann et al. 2000); cited from earlier work
[3] = 0.1 mole/liter in D2O, 0.5 ml + 500 μl human AB serum

| Molecule | Vγ9/Vδ2 T cell population in stimulated cultures (Vγ9/Vδ2 lymphocytes) | inducing T lymphocyte proliferation (proliferation index) compared with IPP [1] | γ9δ2 T lymphocyte proliferation (human γ9δ2 T lymphocytes) | other results |
| --- | --- | --- | --- | --- |
| 5-pyrophosphono-2-methylpent-2-ene [Compound M4] | high increase | more effective than IPP |  |  |
| 5-pyrophosphono-2-methylpentene [Compound M6] | high increase | more effective than IPP |  |  |
| 5-triphosphono-2-methylpentene [Compound M7] | high increase | more effective than IPP |  |  |
| C=C(C)CCO[P@@](=O)(O)OP(=O)(O)O [IPP, isopentenyl pyrophosphate, reference compound] |  |  |  | integral of the 31P NMR peak of the intact molecule [2, 3]: 1.2; degradation of the molecule after incubation in serum [2]: significant degradation |
| NCCCC(O)(P(=O)(O)O)P(=O)(O)O [alendronate] |  |  | stimulants of γ9δ2 T lymphocyte proliferation |  |
| CCCCCN(C)CCC(O)(P(=O)(O)O)P(=O)(O)O [ibandronate] |  |  | stimulants of γ9δ2 T lymphocyte proliferation |  |
| CCOP(=O)(O)O [monoethylphosphate] |  |  | induce in vitro, the proliferation of γ9δ2 T lymphocytes |  |
| NCCC(O)(P(=O)(O)O)P(=O)(O)O [pamidronate] |  |  | stimulants of γ9δ2 T lymphocyte proliferation |  |
| (E) 1-pyrophosphono-4-methylpenta-1,3-diene [Compound M1] | high increase | more effective than IPP |  |  |
| (E) 1-pyrophosphono-buta-1,3-diene [Compound M3] | high increase | more effective than IPP |  |  |
| (E) 1-pyrophosphono-penta-1,3-diene [Compound M2] | high increase | more effective than IPP |  |  |
| isopentenyl pyrophosphonate [IPPN] |  |  |  | integral of the 31P NMR peak of the degradation product (isoprenyl phosphate / isoprenyl phosphonate) [2, 3]: 1.1; integral of the 31P NMR peak of the intact molecule [2, 3]: 96; degradation of the molecule after incubation in serum [2]: changed negligibly |
| α,γ-di-[4-methylpent-4-enyl]-triphosphonate [Compound M5] | high increase | more effective than IPP |  |  |
